SMILES strings stand for the structures.

From patent US10752624B2, “Kinase inhibitors” (Origenis GmbH, priority 2012, dated 2020) come the findings set out here.

The target of one assay is T1, SYK kinase (Homo sapiens, UniProt P43405).
T1 construct: purchased Invitrogen, Carlsbad
The experiment in a line: SYK Assay (OMNIA Kinase Assay, SOX peptide fluorescence). In kind it is biochemical. To be noted: 1 mM ATP, 10 μM Omnia Peptide Substrate Tyr 7, 30° C., readings for 30 minutes; read-out: SYK Activities: IC50. Put shortly: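 The reaction was run at 30 °C with 1 mM ATP, 0.2 mM DTT and 10 μM Omnia Tyr 7 peptide (final) and started by adding SYK. Chelation-enhanced SOX fluorescence (ex 360/em 485 nm) was read every 30 s for 30 min. Reaction velocity versus inhibitor concentration was fitted sigmoidally for IC50.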

The next assay deals with LRRK2 (Homo sapiens, UniProt Q5S007). The experiment in a line: LRRK2-LRRK2 G2019S-Assay (LanthaScreen Eu Kinase Binding Assay). To be noted: 5 nM LRRK2, 10 nM tracer 236, 2 nM EU-Anti-GST antibody, 1 h at RT; read-out: LRRK2 Activities: IC50. Summed up: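 In a TR-FRET tracer displacement assay, LRRK2 or its mutants at 5 nM were mixed with 2 nM Eu-anti-GST antibody and 10 nM tracer 236 in kinase buffer A for 1 h at RT. The 665/615 nm emission ratio was plotted against inhibitor concentration, and IC50 came from a variable-slope sigmoidal fit.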
LRRK2, sequence (Q5S007 970-2527 limits assumed): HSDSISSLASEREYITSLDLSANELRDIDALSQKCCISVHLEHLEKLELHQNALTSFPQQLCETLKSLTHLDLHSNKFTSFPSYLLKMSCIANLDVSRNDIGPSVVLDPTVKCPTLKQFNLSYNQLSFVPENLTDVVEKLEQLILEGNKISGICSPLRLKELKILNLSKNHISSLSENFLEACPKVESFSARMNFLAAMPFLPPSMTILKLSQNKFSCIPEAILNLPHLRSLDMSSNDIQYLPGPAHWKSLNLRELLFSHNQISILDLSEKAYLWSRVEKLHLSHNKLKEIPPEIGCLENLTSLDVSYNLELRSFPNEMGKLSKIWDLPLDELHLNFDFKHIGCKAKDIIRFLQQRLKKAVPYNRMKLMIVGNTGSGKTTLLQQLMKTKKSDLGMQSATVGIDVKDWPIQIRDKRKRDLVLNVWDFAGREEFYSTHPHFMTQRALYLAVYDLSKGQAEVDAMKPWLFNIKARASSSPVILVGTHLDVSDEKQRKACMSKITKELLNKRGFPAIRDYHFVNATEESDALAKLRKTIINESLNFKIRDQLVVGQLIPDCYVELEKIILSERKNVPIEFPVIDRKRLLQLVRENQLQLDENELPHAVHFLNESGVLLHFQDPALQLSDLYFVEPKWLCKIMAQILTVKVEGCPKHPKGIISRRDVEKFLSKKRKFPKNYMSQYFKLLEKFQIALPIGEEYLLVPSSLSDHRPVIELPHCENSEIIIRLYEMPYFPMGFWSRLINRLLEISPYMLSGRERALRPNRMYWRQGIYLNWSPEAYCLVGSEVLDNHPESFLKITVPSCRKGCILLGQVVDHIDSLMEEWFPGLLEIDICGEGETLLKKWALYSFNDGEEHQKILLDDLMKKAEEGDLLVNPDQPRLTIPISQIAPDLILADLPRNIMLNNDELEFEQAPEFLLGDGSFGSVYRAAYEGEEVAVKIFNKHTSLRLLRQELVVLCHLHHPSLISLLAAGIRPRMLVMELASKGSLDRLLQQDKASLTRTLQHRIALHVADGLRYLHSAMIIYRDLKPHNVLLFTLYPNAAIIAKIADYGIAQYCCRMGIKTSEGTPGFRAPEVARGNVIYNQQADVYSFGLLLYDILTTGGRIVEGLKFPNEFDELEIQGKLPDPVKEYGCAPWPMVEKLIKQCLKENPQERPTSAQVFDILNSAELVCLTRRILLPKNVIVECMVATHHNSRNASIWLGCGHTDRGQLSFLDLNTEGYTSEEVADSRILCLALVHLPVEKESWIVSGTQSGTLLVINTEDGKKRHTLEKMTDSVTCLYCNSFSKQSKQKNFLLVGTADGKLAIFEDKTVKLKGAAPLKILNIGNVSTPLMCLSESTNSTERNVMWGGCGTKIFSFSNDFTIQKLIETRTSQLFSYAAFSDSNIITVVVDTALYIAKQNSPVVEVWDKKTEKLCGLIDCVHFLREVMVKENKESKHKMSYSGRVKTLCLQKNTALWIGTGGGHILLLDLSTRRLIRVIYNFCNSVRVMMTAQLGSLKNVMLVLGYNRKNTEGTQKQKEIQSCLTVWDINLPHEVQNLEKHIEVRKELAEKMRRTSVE
For orientation: In TR-FRET formats the signal depends on donor and acceptor labels being close together.

`COc1cccc2nc(Nc3cnn(C=C(C)C)c3)c3[nH]ncc3c12` [Example 259, 9-methoxy-N-(1-(2-methylprop-1-en-1-yl)-1H-pyrazol-4-yl)-3H-pyrazolo[3,4-c]quinolin-4-amine]: the IC50 was 100 to 1000 nM on SYK kinase and less than 10 nM on LRRK2.
On the same counts, the results for `COc1ccc2nc(Nc3cnn(CC(=O)N(C)C)c3)c3n[nH]cc3c2c1` [Example 311, 2-(4-((8-methoxy-2H-pyrazolo[3,4-c]quinolin-4-yl)amino)-1H-pyrazol-1-yl)-N,N-dimethylacetamide] are 100 to 1000 nM and 10 to 100 nM.
The corresponding values for `CN1CCN(C2CCN(c3ccc(Nc4nc5cccc(F)c5c5cn[nH]c45)cc3)CC2)CC1` [Example 1, 9-fluoro-N-(4-(4-(4-methylpiperazin-1-yl)piperidin-1-yl)phenyl)-3H-pyrazolo[3,4-c]quinolin-4-amine] are 100 to 1000 nM and 10 to 100 nM.
For `CC(C)n1cc(Nc2nc3cc(S(C)(=O)=O)ccc3c3cn[nH]c23)cn1` [Example 189, N-(1-isopropyl-1H-pyrazol-4-yl)-7-(methylsulfonyl)-3H-pyrazolo[3,4-c]quinolin-4-amine], the IC50 on SYK kinase and on LRRK2 was 10 to 100 nM each time.
Take `COc1ccc2nc(Nc3ccc(CN4CCC(N5CCN(C)CC5)CC4)cc3)c3n[nH]cc3c2c1` [Example 22, 8-methoxy-N-(4-((4-(4-methylpiperazin-1-yl)piperidin-1-yl)methyl)phenyl)-2H-pyrazolo[3,4-c]quinolin-4-amine]: the IC50 at SYK kinase and at LRRK2 was 100 to 1000 nM in each case.
As for `COc1ccc(Nc2nc3ccc(S(C)(=O)=O)cc3c3c[nH]nc23)cc1NC(C)=O` [Example 332, N-(2-methoxy-5-((8-(methylsulfonyl)-2H-pyrazolo[3,4-c]quinolin-4-yl)amino)phenyl)acetamide], the half-inhibitory concentration (IC50) at SYK kinase and on LRRK2 was 10 to 100 nM throughout.
Take `COCCn1cc(Nc2nc3cc(S(C)(=O)=O)ccc3c3cn[nH]c23)cn1` [Example 170, N-(1-(2-methoxyethyl)-1H-pyrazol-4-yl)-7-(methylsulfonyl)-3H-pyrazolo[3,4-c]quinolin-4-amine]: the IC50 at SYK kinase and on LRRK2 was 100 to 1000 nM in each case.
`CC(C)(C)n1cc(Nc2nc3cc(S(C)(=O)=O)ccc3c3cn[nH]c23)cn1` [Example 188, N-(1-(tert-butyl)-1H-pyrazol-4-yl)-7-(methylsulfonyl)-3H-pyrazolo[3,4-c]quinolin-4-amine]: the IC50 at SYK kinase fell in the range of 100 to 1000 nM; at LRRK2 it was 10 to 100 nM.
On the same counts, the results for `CS(=O)(=O)c1ccc2nc(Nc3ccc(N4CCC(O)CC4)cc3)c3[nH]ncc3c2c1` [Example 316, 1-(4-((8-(methylsulfonyl)-3H-pyrazolo[3,4-c]quinolin-4-yl)amino)phenyl)piperidin-4-ol] are 10 to 100 nM and 10 to 100 nM.
`COc1cccc2nc(Nc3cnn(CC(C)(C)O)c3)c3[nH]ncc3c12` [Example 256, 1-(4-((9-methoxy-3H-pyrazolo[3,4-c]quinolin-4-yl)amino)-1H-pyrazol-1-yl)-2-methylpropan-2-ol]: the results for the IC50 at SYK kinase and at LRRK2 were 100 to 1000 nM and less than 10 nM, respectively.
On the same counts, the results for `CS(=O)(=O)c1cccc2nc(Nc3cnn(C4CCOCC4)c3)c3[nH]ncc3c12` [Example 108, 9-(methylsulfonyl)-N-(1-(tetrahydro-2H-pyran-4-yl)-1H-pyrazol-4-yl)-3H-pyrazolo[3,4-c]quinolin-4-amine] are 100 to 1000 nM and 10 to 100 nM.
The corresponding values for `CC(C)(C#N)n1cc(Nc2nc3ccc(S(C)(=O)=O)cc3c3cn[nH]c23)cn1` [Example 172, 2-methyl-2-(4-((8-(methylsulfonyl)-3H-pyrazolo[3,4-c]quinolin-4-yl)amino)-1H-pyrazol-1-yl)propanenitrile] are less than 10 nM and 10 to 100 nM.
On the same counts, the results for `COc1cc(OC)c2nc(Nc3cnn(C4CCOCC4)c3)c3[nH]ncc3c2c1` [Example 289, 6,8-dimethoxy-N-(1-(tetrahydro-2H-pyran-4-yl)-1H-pyrazol-4-yl)-3H-pyrazolo[3,4-c]quinolin-4-amine] are 100 to 1000 nM and 10 to 100 nM.
Turning to `CC(C)n1ncc(Nc2nc3ccc(S(C)(=O)=O)cc3c3cn[nH]c23)c1Cl` [Example 233, N-(5-chloro-1-isopropyl-1H-pyrazol-4-yl)-8-(methylsulfonyl)-3H-pyrazolo[3,4-c]quinolin-4-amine], the IC50 on SYK kinase is 100 to 1000 nM; on LRRK2, less than 10 nM.
On the same counts, the results for `CS(=O)(=O)c1ccc2nc(Nc3cnn(CCO)c3)c3[nH]ncc3c2c1` [Example 186, 2-(4-((8-(methylsulfonyl)-3H-pyrazolo[3,4-c]quinolin-4-yl)amino)-1H-pyrazol-1-yl)ethan-1-ol] are 10 to 100 nM and less than 10 nM.
The corresponding values for `CC(C)Cn1cc(Nc2nc3cc(S(C)(=O)=O)ccc3c3cn[nH]c23)cn1` [Example 192, N-(1-isobutyl-1H-pyrazol-4-yl)-7-(methylsulfonyl)-3H-pyrazolo[3,4-c]quinolin-4-amine] are 10 to 100 nM and 10 to 100 nM.
As to `COc1ccc2nc(Nc3cnn(C(C)C)c3)c3[nH]ncc3c2c1` [Example 292, N-(1-isopropyl-1H-pyrazol-4-yl)-8-methoxy-3H-pyrazolo[3,4-c]quinolin-4-amine], the IC50 at SYK kinase and on LRRK2 was 10 to 100 nM each time.
On to `CC(C)C(C)n1cc(Nc2nc3ccc(S(C)(=O)=O)cc3c3c[nH]nc23)cn1` (stereo not shown) [Example 324, N-(1-(3-methylbutan-2-yl)-1H-pyrazol-4-yl)-8-(methylsulfonyl)-2H-pyrazolo[3,4-c]quinolin-4-amine], for which the IC50 was 10 to 100 nM on SYK kinase and less than 10 nM on LRRK2.
The corresponding values for `COc1cccc2nc(Nc3cnn(C(C)C)c3)c3[nH]ncc3c12` [Example 182, N-(1-isopropyl-1H-pyrazol-4-yl)-9-methoxy-3H-pyrazolo[3,4-c]quinolin-4-amine] are 10 to 100 nM and less than 10 nM.
The corresponding values for `CN1CCN(C(=O)c2ccc(Nc3nc4ccc(S(C)(=O)=O)cc4c4cn[nH]c34)cc2)CC1` [Example 65, (4-methylpiperazin-1-yl)(4-((8-(methylsulfonyl)-3H-pyrazolo[3,4-c]quinolin-4-yl)amino)phenyl)methanone] are 10 to 100 nM and 10 to 100 nM.
The corresponding values for `COc1ccc2nc(Nc3cnn(C(C)(C)C#N)c3)c3[nH]ncc3c2c1` [Example 301, 2-(4-((8-methoxy-3H-pyrazolo[3,4-c]quinolin-4-yl)amino)-1H-pyrazol-1-yl)-2-methylpropanenitrile] are 10 to 100 nM and less than 10 nM.
Regarding `CC(C)n1cc(Nc2nc3ccc(S(C)(=O)=O)cc3c3cn[nH]c23)c(C#N)n1` [Example 246, 1-isopropyl-4-((8-(methylsulfonyl)-3H-pyrazolo[3,4-c]quinolin-4-yl)amino)-1H-pyrazole-3-carbonitrile], the IC50 is 100 to 1000 nM on SYK kinase and 10 to 100 nM on LRRK2.
On the same counts, the results for `COc1cccc2nc(Nc3cnn(CCF)c3)c3[nH]ncc3c12` [Example 253, N-(1-(2-fluoroethyl)-1H-pyrazol-4-yl)-9-methoxy-3H-pyrazolo[3,4-c]quinolin-4-amine] are 100 to 1000 nM and less than 10 nM.

The IC50 is the concentration that inhibits the measured activity by half.
